The record followed here is patent US8426408B2, “Pyrimidine inhibitors of kinases” (AbbVie Inc., priority 2009, dated 2013).

Bounds are passed on as bounds.

The subject of one test is NCI-H1299 cells. Description: Induction of polyploidy in H1299. In kind it is cell-based, Human. The note with it: NCI-H1299, 48 hours; for EC15: Homo sapiens, read-out: EC15 (concentration of inhibitor necessary to induce polyploidy in 15% of cells). The method in brief:
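Potency is given as EC15, the inhibitor concentration giving 15% polyploid cells, from log dose-response least-squares analysis. Polyploid cells (nuclear area >750 μ^2, ≥4N) were counted by Hoechst high-content microscopy. H1299 cells had been exposed for 48 h at 37 C in duplicate, then fixed in 3% formalin.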

The target of test [1] is T1, KDR (Homo sapiens, UniProt P35968). Description: KDR HTRF in vitro kinase assay. In kind it is biochemical. Further details: purified enzyme (His6-KDR 789-1354, MW 63 kD); His6 (N). Conditions: 1 mM ATP; read-out: KDR enzyme inhibition data (Ki). The method in brief:
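His6-KDR 789-1354 (7 ng/well) with 0.5 μM biotinylated peptide substrate and 1 mM ATP in HEPES pH 7.1, MgCl2/MnCl2, 60 min at room temperature. EDTA-quenched, detected by streptavidin-XL-665 plus Eu-kryptate anti-phosphotyrosine HTRF after 3 h; IC50 from 620/665 nm ratio.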
Target sequence in this assay (P35968 789-1354): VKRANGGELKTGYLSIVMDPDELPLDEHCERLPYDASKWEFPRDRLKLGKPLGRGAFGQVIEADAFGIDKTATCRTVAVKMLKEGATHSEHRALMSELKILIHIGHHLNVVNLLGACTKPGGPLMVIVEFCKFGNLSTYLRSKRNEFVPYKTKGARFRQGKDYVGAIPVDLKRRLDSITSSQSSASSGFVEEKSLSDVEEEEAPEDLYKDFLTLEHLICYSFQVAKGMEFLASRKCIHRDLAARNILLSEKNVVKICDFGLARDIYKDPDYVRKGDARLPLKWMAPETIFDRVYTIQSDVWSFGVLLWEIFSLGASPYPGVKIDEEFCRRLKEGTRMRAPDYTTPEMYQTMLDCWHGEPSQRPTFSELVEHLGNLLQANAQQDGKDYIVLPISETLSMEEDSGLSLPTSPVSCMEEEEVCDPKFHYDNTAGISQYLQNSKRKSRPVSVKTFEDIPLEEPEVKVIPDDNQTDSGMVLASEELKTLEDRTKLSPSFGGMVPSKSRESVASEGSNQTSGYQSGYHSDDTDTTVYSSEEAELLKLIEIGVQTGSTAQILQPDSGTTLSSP

Test [2] concerns the target T1, KDR. Description: KDR cellular assay (KDR receptor phosphorylation ELISA). In kind it is cell-based. Further details: expressed in transfected cells; host or cells: 3T3 (embryonic mouse) cells. The note with it: KDR transfected 3T3 (embryonic mouse) cells, VEGF stimulated; read-out: IC50 inhibition of KDR phosphorylation. The method in brief: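 Phospho-KDR measured by capture ELISA (anti-KDR coat, biotinylated detection, streptavidin-HRP, 450 nm) in lysates of KDR-expressing 3T3 mouse fibroblasts. Cells saw compound 20 min at 37° C before 10 min VEGF challenge (100 ng/ml solution); IC50 from non-linear regression of half-log dose series.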
Target sequence in this assay (P35968 20-1356): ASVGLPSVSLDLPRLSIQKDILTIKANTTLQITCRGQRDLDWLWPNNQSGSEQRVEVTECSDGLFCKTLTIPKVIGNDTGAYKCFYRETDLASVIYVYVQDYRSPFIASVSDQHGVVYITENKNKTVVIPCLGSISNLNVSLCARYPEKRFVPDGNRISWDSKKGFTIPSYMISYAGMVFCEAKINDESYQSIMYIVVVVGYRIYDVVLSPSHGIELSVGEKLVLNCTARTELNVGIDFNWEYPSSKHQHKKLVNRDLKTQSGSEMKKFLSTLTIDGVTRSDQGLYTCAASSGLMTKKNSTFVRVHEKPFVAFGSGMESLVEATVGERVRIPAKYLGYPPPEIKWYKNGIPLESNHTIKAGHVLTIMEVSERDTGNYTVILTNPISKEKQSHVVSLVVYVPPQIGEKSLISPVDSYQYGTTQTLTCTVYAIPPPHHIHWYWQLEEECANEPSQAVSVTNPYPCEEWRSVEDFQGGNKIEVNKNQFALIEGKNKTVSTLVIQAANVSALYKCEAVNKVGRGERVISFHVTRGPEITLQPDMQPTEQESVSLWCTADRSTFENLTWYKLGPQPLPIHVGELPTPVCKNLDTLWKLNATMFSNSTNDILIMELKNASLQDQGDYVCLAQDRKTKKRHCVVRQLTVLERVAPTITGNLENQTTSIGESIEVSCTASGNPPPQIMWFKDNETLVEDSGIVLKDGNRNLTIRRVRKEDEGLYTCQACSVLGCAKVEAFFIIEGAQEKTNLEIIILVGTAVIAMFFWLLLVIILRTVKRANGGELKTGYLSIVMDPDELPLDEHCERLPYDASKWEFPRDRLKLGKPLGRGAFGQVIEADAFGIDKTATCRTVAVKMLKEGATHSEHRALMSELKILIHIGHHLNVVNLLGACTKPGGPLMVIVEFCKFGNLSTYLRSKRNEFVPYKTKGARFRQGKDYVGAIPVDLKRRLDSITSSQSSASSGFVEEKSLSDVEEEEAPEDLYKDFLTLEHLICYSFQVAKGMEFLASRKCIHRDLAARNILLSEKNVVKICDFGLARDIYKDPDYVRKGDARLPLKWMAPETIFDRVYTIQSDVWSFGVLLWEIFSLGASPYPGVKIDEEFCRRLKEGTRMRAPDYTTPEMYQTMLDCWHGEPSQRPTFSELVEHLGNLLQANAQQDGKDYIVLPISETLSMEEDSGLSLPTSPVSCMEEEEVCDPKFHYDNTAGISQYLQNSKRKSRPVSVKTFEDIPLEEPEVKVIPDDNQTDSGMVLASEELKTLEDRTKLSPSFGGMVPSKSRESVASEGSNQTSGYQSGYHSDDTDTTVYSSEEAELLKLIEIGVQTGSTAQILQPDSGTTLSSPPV

For the compound `CCn1cc(Nc2ncc(Cl)c(NC3C4CCC(O4)C3C(N)=O)n2)cn1` (racemic) [Example 142, (1S,2R,3S,4R)-3-({5-chloro-2-[(1-ethyl-1H-pyrazol-4-yl)amino]pyrimidin-4-yl}amino)-7-oxabicyclo[2.2.1]heptane-2-carboxamide and (1R,2S,3R,4S)-3-({5-chloro-2-[(1-ethyl-1H-pyrazol-4-yl)amino]pyrimidin-4-yl}amino)-7-oxabicyclo[2.2.1]heptane-2-carboxamide], the “EC15 (concentration of inhibitor necessary to induce polyploidy in 15% of cells)” value with NCI-H1299 cells was “B (“B” represents an EC15 of between 0.1 μM and 1 μM)”. In addition, the Ki on KDR [1] was below 100 nM. In addition, the IC50 at KDR [2] lay within 100 to 1000 nM.
Take `CCn1cc(Nc2ncc(Cl)c(N[C@H]3[C@@H](C(N)=O)[C@@H]4C=C[C@H]3C4)n2)cn1` (racemic) [Example 30, (1S,2S,3R,4R)-3-({5-chloro-2-[(1-ethyl-1H-pyrazol-4-yl)amino]pyrimidin-4-yl}amino)bicyclo[2.2.1]hept-5-ene-2-carboxamide and (1R,2R,3S,4S)-3-({5-chloro-2-[(1-ethyl-1H-pyrazol-4-yl)amino]pyrimidin-4-yl}amino)bicyclo[2.2.1]hept-5-ene-2-carboxamide]: the “EC15 (concentration of inhibitor necessary to induce polyploidy in 15% of cells)” value with NCI-H1299 cells is on record as “A (“A” represents an EC15 of less than 0.1 μM)”. In addition, at KDR [1], the Ki was below 100 nM. On KDR [2], the concentration for half-maximal inhibition (IC50) is below 100 nM.
Take `NC(=O)[C@@H]1[C@H](Nc2nc(Nc3cnn(Cc4ccc(Cl)cc4)c3)ncc2Br)[C@H]2C=C[C@@H]1C2` [Example 172, (1S,2S,3R,4R)-3-[(5-bromo-2-{[1-(4-chlorobenzyl)-1H-pyrazol-4-yl]amino}pyrimidin-4-yl)amino]bicyclo[2.2.1]hept-5-ene-2-carboxamide]: the EC15 in the test with NCI-H1299 cells was below 100 nM. Moreover, the Ki on KDR [1] was below 100 nM. At KDR [2], the half-inhibitory concentration (IC50) is below 100 nM.
Take `COCCn1cc(Nc2ncc(Br)c(N[C@H]3[C@@H](C(N)=O)[C@@H]4C=C[C@H]3C4)n2)cn1` [Example 106, (1S,2S,3R,4R)-3-[(5-bromo-2-{[1-(2-methoxyethyl)-1H-pyrazol-4-yl]amino}pyrimidin-4-yl)amino]bicyclo[2.2.1]hept-5-ene-2-carboxamide]: the EC15 in the test on NCI-H1299 cells is below 100 nM. In addition, the Ki on KDR [1] is below 100 nM. In addition, the IC50 on KDR [2] was below 100 nM.
`Cn1cc(Nc2ncc(C(F)(F)F)c(Nc3ccccc3C3(O)CNC3)n2)cn1` [Example 109, 3-[2-({2-[(1-methyl-1H-pyrazol-4-yl)amino]-5-(trifluoromethyl)pyrimidin-4-yl}amino)phenyl]azetidin-3-ol]: in the test with NCI-H1299 cells, the EC15 is below 100 nM. The Ki at KDR [1] is below 100 nM. The IC50 on KDR [2] fell in the range of 100 to 1000 nM.
`Cn1cc(Nc2ncc(Cl)c(Nc3ccccc3C3(O)CCC3)n2)cn1` [Example 101, 1-[2-({5-chloro-2-[(1-methyl-1H-pyrazol-4-yl)amino]pyrimidin-4-yl}amino)phenyl]cyclobutanol]: the EC15 in the test with NCI-H1299 cells was below 100 nM. In addition, the Ki on KDR [1] is below 100 nM. In addition, at KDR [2], the IC50 lay in the range of 100 to 1000 nM.
For `NC(=O)[C@@H]1[C@H](Nc2nc(Nc3cnn(Cc4ccccc4)c3)ncc2Cl)[C@H]2C=C[C@@H]1C2` [Example 144, (1S,2S,3R,4R)-3-({2-[(1-benzyl-1H-pyrazol-4-yl)amino]-5-chloropyrimidin-4-yl}amino)bicyclo[2.2.1]hept-5-ene-2-carboxamide], the EC15 in the test with NCI-H1299 cells is below 100 nM. Moreover, the Ki at KDR [1] was below 100 nM. Besides, the IC50 on KDR [2] is below 100 nM.
For `COc1cccc(CCn2cc(Nc3ncc(Cl)c(N[C@H]4[C@@H](C(N)=O)[C@@H]5C=C[C@H]4C5)n3)cn2)c1` [Example 154, (1S,2S,3R,4R)-3-{[5-chloro-2-({1-[2-(3-methoxyphenyl)ethyl]-1H-pyrazol-4-yl}amino)pyrimidin-4-yl]amino}bicyclo[2.2.1]hept-5-ene-2-carboxamide], the EC15 in the test on NCI-H1299 cells was below 100 nM. For the same compound, the Ki on KDR [1] is below 100 nM. At KDR [2], the IC50 lay within 100 to 1000 nM.
Turning to `CS(=O)(=O)CCn1cc(Nc2ncc(Br)c(N[C@H]3[C@@H](C(N)=O)[C@@H]4C=C[C@H]3C4)n2)cn1` [Example 122, (1S,2S,3R,4R)-3-{[5-bromo-2-({1-[2-(methylsulfonyl)ethyl]-1H-pyrazol-4-yl}amino)pyrimidin-4-yl]amino}bicyclo[2.2.1]hept-5-ene-2-carboxamide], the EC15 with NCI-H1299 cells was below 100 nM. Moreover, on KDR [1], the Ki was below 100 nM. Besides, the IC50 at KDR [2] is below 100 nM.
As for `NC(=O)[C@@H]1[C@H](Nc2nc(Nc3cnn(C4CCC4)c3)ncc2Br)[C@H]2C=C[C@@H]1C2` [Example 123, (1S,2S,3R,4R)-3-({5-bromo-2-[(1-cyclobutyl-1H-pyrazol-4-yl)amino]pyrimidin-4-yl}amino)bicyclo[2.2.1]hept-5-ene-2-carboxamide], the EC15 in the test with NCI-H1299 cells was below 100 nM. Further, on KDR [1], the Ki was below 100 nM. In addition, the IC50 on KDR [2] is below 100 nM.
On to `COc1cccc(Cn2cc(Nc3ncc(Cl)c(N[C@H]4[C@@H](C(N)=O)[C@@H]5C=C[C@H]4C5)n3)cn2)c1` [Example 155, (1S,2S,3R,4R)-3-[(5-chloro-2-{[1-(3-methoxybenzyl)-1H-pyrazol-4-yl]amino}pyrimidin-4-yl)amino]bicyclo[2.2.1]hept-5-ene-2-carboxamide], for which the EC15 with NCI-H1299 cells is below 100 nM. The Ki at KDR [1] was below 100 nM. Also, the IC50 at KDR [2] was below 100 nM.
Turning to `NC(=O)[C@@H]1[C@H](Nc2nc(Nc3cnn(C[C@@H](O)CO)c3)ncc2Cl)[C@H]2C=C[C@@H]1C2` [Example 130, (1S,2S,3R,4R)-3-{[5-chloro-2-({1-[(2R)-2,3-dihydroxypropyl]-1H-pyrazol-4-yl}amino)pyrimidin-4-yl]amino}bicyclo[2.2.1]hept-5-ene-2-carboxamide], the EC15 in the test with NCI-H1299 cells is below 100 nM. The Ki at KDR [1] is below 100 nM. Further, the IC50 on KDR [2] is 100 to 1000 nM.
For the compound `NC(=O)[C@@H]1[C@H](Nc2nc(Nc3cnn(C[C@H](O)CO)c3)ncc2Br)[C@H]2C=C[C@@H]1C2` [Example 131, (1S,2S,3R,4R)-3-{[5-bromo-2-({1-[(2S)-2,3-dihydroxypropyl]-1H-pyrazol-4-yl}amino)pyrimidin-4-yl]amino}bicyclo[2.2.1]hept-5-ene-2-carboxamide], in the test with NCI-H1299 cells, the EC15 was below 100 nM. Also, the inhibition constant (Ki) at KDR [1] is below 100 nM. Moreover, the IC50 on KDR [2] lay within 100 to 1000 nM.
As for `CN1CCN(CCn2cc(Nc3ncc(Cl)c(N[C@@H]4[C@H]5CC[C@H](C5)[C@@H]4C(N)=O)n3)cn2)CC1` [Example 90, (1R,2S,3R,4S)-3-{[5-chloro-2-({1-[2-(4-methylpiperazin-1-yl)ethyl]-1H-pyrazol-4-yl}amino)pyrimidin-4-yl]amino}bicyclo[2.2.1]heptane-2-carboxamide], in the test on NCI-H1299 cells, the EC15 lay within 100 to 1000 nM. Further, the Ki at KDR [1] was below 100 nM. The IC50 on KDR [2] was below 100 nM.
Take `NC(=O)[C@@H]1[C@H](Nc2nc(Nc3cnn(Cc4ccccc4)c3)ncc2Br)[C@H]2C=C[C@@H]1C2` [Example 149, (1S,2S,3R,4R)-3-({2-[(1-benzyl-1H-pyrazol-4-yl)amino]-5-bromopyrimidin-4-yl}amino)bicyclo[2.2.1]hept-5-ene-2-carboxamide]: in the test on NCI-H1299 cells, the EC15 is below 100 nM. For the same compound, the Ki on KDR [1] is below 100 nM. Further, at KDR [2], the IC50 is below 100 nM.
As for `Cn1cc(Nc2ncc(C(F)(F)F)c(Nc3ccsc3C(N)=O)n2)cn1` [Example 150, 3-({2-[(1-methyl-1H-pyrazol-4-yl)amino]-5-(trifluoromethyl)pyrimidin-4-yl}amino)thiophene-2-carboxamide], the EC15 with NCI-H1299 cells is below 100 nM. For the same compound, the Ki at KDR [1] is below 100 nM. Also, at KDR [2], the IC50 lay within 100 to 1000 nM.
Regarding `CN1CCC(Cn2cc(Nc3ncc(Cl)c(N[C@H]4[C@@H](C(N)=O)[C@@H]5C=C[C@H]4C5)n3)cn2)CC1` [Example 97, (1S,2S,3R,4R)-3-{[5-chloro-2-({1-[(1-methylpiperidin-4-yl)methyl]-1H-pyrazol-4-yl}amino)pyrimidin-4-yl]amino}bicyclo[2.2.1]hept-5-ene-2-carboxamide], the EC15 in the test on NCI-H1299 cells was 100 to 1000 nM. Further, the Ki on KDR [1] was below 100 nM. The IC50 on KDR [2] was below 100 nM.
For `NC(=O)[C@@H]1[C@H](Nc2nc(Nc3cnn([C@H]4CCOC4)c3)ncc2Br)[C@H]2C=C[C@@H]1C2` [Example 117, (1S,2S,3R,4R)-3-{[5-bromo-2-({1-[(3S)-tetrahydrofuran-3-yl]-1H-pyrazol-4-yl}amino)pyrimidin-4-yl]amino}bicyclo[2.2.1]hept-5-ene-2-carboxamide], in the test on NCI-H1299 cells, the EC15 was below 100 nM. The Ki on KDR [1] was below 100 nM. Besides, the IC50 at KDR [2] was below 100 nM.
On to `CNC(=O)Cn1cc(Nc2ncc(Cl)c(N[C@@H]3[C@H]4CC[C@H](C4)[C@@H]3C(N)=O)n2)cn1` [Example 88, (1R,2S,3R,4S)-3-{[5-chloro-2-({1-[2-(methylamino)-2-oxoethyl]-1H-pyrazol-4-yl}amino)pyrimidin-4-yl]amino}bicyclo[2.2.1]heptane-2-carboxamide], for which the EC15 with NCI-H1299 cells is 100 to 1000 nM. The inhibition constant Ki on KDR [1] was below 100 nM. For the same compound, the IC50 on KDR [2] was 100 to 1000 nM.
